Tests used:
[1] = system: HSV-1, HSV-1R, HSV-2 and HSV-2R; assay: Virucidal action: viral suspensions treated before infection of vero cells; assay type: cell-based, herpes simplex virus
Method: To determine whether PS3 has a virucidal effect, the procedure was as follows.
Vero cells were seeded at a cell density of 3·10^4 cells/well of a microtitre plate in 100 μl of MEM medium containing 8% FCS for 24 hours before the test.
On the day of the test, 50 μl of each of the viral suspensions identified above were treated with 50 μl of PS3 or reference product (acyclovir) having a given concentration for one hour at 37° C.
An amount of 100 μl of the mixture of this viral suspension, to which PS3 or the reference product had been added, was introduced into each well of the microtitre plate. The plate was kept at 4° C. for one hour.
It is to be noted that controls of the growth of the cells and of the viruses were run simultaneously.
The plates containing the infected cells were then placed in an oven at 37° C. for 48 or 72 hours.
The virucidal effect of PS3 was evaluated by measurement of the EC50 values determined in accordance with the method described in Example 3.

[2] = system: HSV-1, HSV-1R, HSV-2 and HSV-2R; assay: Action on the viral infection: vero cells pretreated before infection; assay type: cell-based, herpes simplex virus
Method: The abovementioned viral suspensions of HSV-1, HSV-1R, HSV-2 and HSV-2R, defined by an MOI of 0.01 ID50/cell for a cell concentration of 350,000 cells/ml, were tested.
Acyclovir and dextran sulphate used at concentrations comprised between 0.05 and 5 μg/ml were used as reference products in this series of experiments. PS3 concentrations of 0.125 to 1,250 μg/ml were used, and the experiments were carried out in 96-well microtitre plates.
To verify whether PS3 protects a cell culture when it is used before its infection by the abovementioned viral strains, the procedure was as follows.
Vero cells were seeded at a cell density of […] in 100 μl of MEM medium containing 8% FCS.
A solution of 50 μl of PS3 or the comparison product, that is to say acyclovir having a given concentration, was then added to each well filled with 50 μl of MEM medium with 8% FCS.
The microtitre plate containing the cells treated with PS3 or the reference product was than placed in an oven at 37° C. for 6, 12 or 24 hours. The cells were then washed with 100 μl of MEM medium in order to remove the PS3 or the reference product.
A volume of 50 μl of a viral suspension was then added to each well, as well as 50 μl of MEM medium with 8% FCS; and the plates were kept at 4° C. for 1 hour.
The infected cells were then placed in an oven at 37° C. for 48 or 72 hours.

HSV-2 = assay: Anti-herpes activity, viability of infected vero cells (neutral red); assay type: cell-based, herpes simplex virus 2; details: for EC50: MOI 0.01 ID50/cell
Method: (§1) This method is based on the principle that living cells absorb neutral red, which is a vital stain. The optical density of the medium was measured at the maximum absorption wavelength of neutral red, that is to say 540 nm, using a spectrophotometer (SpectraCount™, microplate photometer, Packard). The optical density at 540 nm is proportional to the number of living cells in an infected culture (McLaren et al., Antiviral Research, 1983; 3: 223-234 and Langlois et al., Standardization, 1986, 14: 201-211).
(§2) The effective concentration (EC 50%), that is to say the concentration of the sulphated polysaccharide which enables infection of 50% of the cells of a culture to be inhibited, was measured for each viral strain.
(§3) The determination of the EC50 was carried out in 96-well microtitre plates in accordance with the following protocol. Vero cells are seeded at a cell density of 3.5·10^4 cells/well in 100 μl of MEM medium containing 8% FCS. For each viral suspension defined by its MOI: • the negative control column was filled with 100 μl of MEM medium with 8% FCS, • the virus control column was filled with 50 μl of viral suspension having the required MOI and with 50 μl of MEM medium with 8% FCS, • the PS3 control column was filled with 50 μl of PS3 having the desired concentration range or with 50 μl of acyclovir (Zovirax 0.05-5 μg/ml • finally, all the other columns were filled successively with 50 μl of PS3 having the required concentration range or with 50 μl of acyclovir (Zovirax 0.05-5 μg/ml) and with 50 μl of the viral suspension having the desired MOI.
(§4) The EC50 corresponding to the concentration which enables the cytopathic effect of the virus to be reduced by 50% was calculated in accordance with the following formula: […]
(§5) The anti-herpes activity of PS3 was evaluated and compared on each viral suspension of HSV-1, HSV-1R, HSV-2 and HSV-2R defined by an MOI of 0.01 ID50/cell for a cell concentration of 350,000 cells/ml, after incubation times of 48 and 72 hours.
(§6) This series of experiments was carried out applying the protocol enabling the EC50 to be determined, as described in Example 3.
(§7) The therapeutic indices (TI) of PS3, as well as three other reference products, that is to say acyclovir, dextran sulphate and phycarine, were determined in parallel for each viral strain.
(§8) The therapeutic index (TI) represents the ratio between the maximum non-toxic dose (or a dose inducing a quantified toxicity) and the dose inducing a favourable pharmacological effect.

[3] = system: acyclovir-resistant strain HSV-2R; assay: as above; assay type: cell-based, herpes simplex virus 2; details: for Anti-herpes activity (conclusion in words) / EC50: HSV-2R; for Anti-herpes activity (conclusion in words): 48 and 72 hours; for EC50: MOI 0.01 ID50/cell
Method: as §1, §2, §3, §4, §5, §6, §7, §8

[4] = system: acyclovir-resistant strain HSV-1R; assay: as above; assay type: cell-based, herpes simplex virus 1; details: for Anti-herpes activity (conclusion in words) / EC50: HSV-1R; for Anti-herpes activity (conclusion in words): 48 and 72 hours; for EC50: MOI 0.01 ID50/cell
Method: as §1, §2, §3, §4, §5, §6, §7, §8

HSV-1 = assay: as above; assay type: cell-based, herpes simplex virus 1; details: for EC50: MOI 0.01 ID50/cell
Method: as §1, §2, §3, §4, §5, §6, §7, §8

[5] = non-resistant strains HSV-1 and HSV-2
[6] = strains HSV-1, HSV-2, HSV-1R, HSV-2R, cells pretreated 6, 12 or 24 hours, washed, then infected

Nc1nc2c(ncn2COCCO)c(=O)[nH]1 [Acyclovir, acyclovir, reference compound]
Virucidal effect [1, 5]: no
Effect before infection [2, 5]: no
Effect before infection [2, 6]: not protected
Therapeutic index HSV-2 (HSV-2; incubation time 48 hours): >579
Therapeutic index HSV-2 (HSV-2; incubation time 72 hours): >613
Anti-herpes activity (conclusion in words) [3]: not effective
Therapeutic index HSV-2R ([3]; incubation time 48 hours): 0
Therapeutic index HSV-2R ([3]; incubation time 72 hours): 0
Anti-herpes activity (conclusion in words) [4]: not effective
Therapeutic index HSV-1R ([4]; incubation time 48 hours): 0
Therapeutic index HSV-1R ([4]; incubation time 72 hours): 0
Therapeutic index HSV-1 (HSV-1; incubation time 48 hours): >4,902
Therapeutic index HSV-1 (HSV-1; incubation time 72 hours): >1,492

sulphated laminarin [PS3]
Virucidal effect ([1]; strains HSV-1, HSV-2, HSV-1R, HSV-2R, viral suspension treated one hour at 37° C.): no virucidal effect and no
Effect before infection [2, 6]: not protected and no
Anti-herpes activity (conclusion in words) (HSV-2; HSV-2, 48 and 72 hours): more effective than acyclovir
EC50 (HSV-2; HSV-2, after 48 hours of treatment): less than 2 μg/ml
EC50 (HSV-2; HSV-2, after 72 hours of treatment): less than 5 μg/ml
Therapeutic index HSV-2 (HSV-2; incubation time 48 hours): >4,808
Therapeutic index HSV-2 (HSV-2; incubation time 72 hours): >1,344
Anti-herpes activity (conclusion in words) [3]: more effective than acyclovir
EC50 ([3]; after 48 hours of treatment): less than 2 μg/ml
EC50 ([3]; after 72 hours of treatment): less than 5 μg/ml
Therapeutic index HSV-2R ([3]; incubation time 48 hours): >3,788
Therapeutic index HSV-2R ([3]; incubation time 72 hours): >1,712
Anti-herpes activity (conclusion in words) [4]: more effective than acyclovir
EC50 ([4]; after 48 hours of treatment): less than 2 μg/ml
EC50 ([4]; after 72 hours of treatment): less than 5 μg/ml
Therapeutic index HSV-1R ([4]; incubation time 48 hours): >1,157
Therapeutic index HSV-1R ([4]; incubation time 72 hours): >530
EC50 (HSV-1; HSV-1, after 48 hours of treatment): less than 2 μg/ml
EC50 (HSV-1; HSV-1, after 72 hours of treatment): less than 5 μg/ml
Therapeutic index HSV-1 (HSV-1; incubation time 48 hours): >1,761
Therapeutic index HSV-1 (HSV-1; incubation time 72 hours): >651

— patent US8288363B2, “Medicaments for anti-herpes virus treatments” (ASE & BIO, priority 2006, dated 2012)
